In paper PMC5945515, “Measuring glucocorticoid receptor expression in vivo with PET” (Oncotarget, 2018):

Biological target: T1, mouse GR (Mus musculus, UniProt P06537)
T1 construct: endogenous in cells; host or cells: GL261
T1 sequence (P06537 1-792): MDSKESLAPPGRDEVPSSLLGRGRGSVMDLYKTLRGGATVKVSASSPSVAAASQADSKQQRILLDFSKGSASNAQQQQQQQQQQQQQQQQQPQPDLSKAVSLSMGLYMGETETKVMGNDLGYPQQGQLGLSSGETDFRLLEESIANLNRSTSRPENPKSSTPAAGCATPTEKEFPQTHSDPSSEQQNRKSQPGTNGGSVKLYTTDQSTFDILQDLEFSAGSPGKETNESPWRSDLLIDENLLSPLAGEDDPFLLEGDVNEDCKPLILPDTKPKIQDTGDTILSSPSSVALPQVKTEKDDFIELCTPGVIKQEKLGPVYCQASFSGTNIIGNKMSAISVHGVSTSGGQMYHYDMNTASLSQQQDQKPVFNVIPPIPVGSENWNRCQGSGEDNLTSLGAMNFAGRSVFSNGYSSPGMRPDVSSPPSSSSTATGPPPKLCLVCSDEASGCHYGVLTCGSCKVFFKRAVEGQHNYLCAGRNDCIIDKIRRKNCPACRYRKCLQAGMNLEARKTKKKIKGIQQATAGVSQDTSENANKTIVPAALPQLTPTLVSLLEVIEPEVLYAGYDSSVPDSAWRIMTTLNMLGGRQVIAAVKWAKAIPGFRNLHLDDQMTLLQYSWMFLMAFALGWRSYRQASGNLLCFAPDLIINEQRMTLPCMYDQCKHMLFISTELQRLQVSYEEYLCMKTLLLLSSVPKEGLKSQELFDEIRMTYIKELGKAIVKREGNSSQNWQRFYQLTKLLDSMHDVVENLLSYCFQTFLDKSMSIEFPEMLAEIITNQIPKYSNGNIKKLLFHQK
Test: Competition binding assay on cells, mouse GR
Conditions: GL261 cells, displacing 3H-dexamethasone; read-out: KD msGR
Experimental: The KD for subfamily 3 group C nuclear hormone receptors was determined on cells by displacing ^3H-steroidal agonists for the respective receptor. […].
The cold ligands and ^3H-steroids were co-incubated on cells in PBS at room temperature for one hour. Following incubation, the cells were washed twice with ice cold PBS and the unbound activity was retained for analysis. The cells were lysed with 1 mL of 1 M NaOH and collected. Bound and unbound fractions were counted in a liquid scintillation counter and expressed as a percentage of the total activity added per equal relative number of cells. […]. The specific binding component was plotted against the log of the competing ligand and curve fit using a non-linear regression algorithm with PRISM software.

C[C@]12C=CC(=O)C=C1CCC1C2[C@@H](O)C[C@@]2(C)C1CC[C@]2(O)C(=O)CNC(=O)c1ccc(F)cc1 (stereo partly shown) [GR02]
Kd: 6.71 nM
